Laboratory results as given in the NIST ThermoML archive (doi:10.1016/j.jct.2011.12.008).
± gives the expanded uncertainty stated by the source.

Key:
[1] = 101.33 kPa, Liquid; for viscosity: Capillary tube (Ostwald / Ubbelohde) method; for mass density: Vibrating tube method
[2] = xn = mol fraction of the nth substance listed; conditions: 101 kPa, Liquid; for viscosity: Capillary tube (Ostwald / Ubbelohde) method; for mass density: Vibrating tube method

Structure (SMILES)	viscosity ([1]; 293.15 K) [mPa·s]	mass density ([1]; 293.15 K) [kg/m3]	viscosity ([1]; 298.15 K) [mPa·s]	mass density ([1]; 298.15 K) [kg/m3]	viscosity ([1]; 303.15 K) [mPa·s]	mass density ([1]; 303.15 K) [kg/m3]	viscosity ([1]; 308.15 K) [mPa·s]	mass density ([1]; 308.15 K) [kg/m3]	viscosity ([1]; 313.15 K) [mPa·s]	mass density ([1]; 313.15 K) [kg/m3]	viscosity ([1]; 318.15 K) [mPa·s]	mass density ([1]; 318.15 K) [kg/m3]	viscosity ([1]; 323.15 K) [mPa·s]	mass density ([1]; 323.15 K) [kg/m3]	viscosity ([1]; 328.15 K) [mPa·s]	mass density ([1]; 328.15 K) [kg/m3]	viscosity ([1]; 333.15 K) [mPa·s]	mass density ([1]; 333.15 K) [kg/m3]	viscosity ([1]; 338.15 K) [mPa·s]	mass density ([1]; 338.15 K) [kg/m3]	other results
NCCCO [3-amino-1-propanol]	39.29 ± 1.6	987.55 ± 0.23	30.43 ± 1.3	983.55 ± 0.23	23.87 ± 0.99	979.53 ± 0.23	19.07 ± 0.79	975.51 ± 0.23	15.27 ± 0.63	971.47 ± 0.23	12.35 ± 0.51	967.43 ± 0.23	10.22 ± 0.42	963.37 ± 0.23	8.535 ± 0.35	959.3 ± 0.23	7.123 ± 0.29	955.22 ± 0.23	6.045 ± 0.25	951.14 ± 0.23	–
CCCCCCn1cc[n+](C)c1.F[B-](F)(F)F [1-hexyl-3-methylimidazolium tetrafluoroborate] + NCCCO	–	–	–	–	–	–	–	–	–	–	–	–	–	–	–	–	–	–	–	–	viscosity ([2]; 293.15 K, x1 = 1): 234.68 ± 11 mPa·s; mass density ([2]; 293.15 K, x1 = 1): 1149.05 ± 1.1 kg/m3; viscosity ([2]; 298.15 K, x1 = 1): 178.92 ± 8.4 mPa·s; mass density ([2]; 298.15 K, x1 = 1): 1145.61 ± 1.1 kg/m3; viscosity ([2]; 303.15 K, x1 = 1): 136.15 ± 6.2 mPa·s; mass density ([2]; 303.15 K, x1 = 1): 1142.3 ± 1.1 kg/m3; viscosity ([2]; 308.15 K, x1 = 1): 106.65 ± 4.7 mPa·s; mass density ([2]; 308.15 K, x1 = 1): 1138.95 ± 1.1 kg/m3; viscosity ([2]; 313.15 K, x1 = 1): 83.13 ± 3.6 mPa·s; mass density ([2]; 313.15 K, x1 = 1): 1135.59 ± 1.1 kg/m3; viscosity ([2]; 318.15 K, x1 = 1): 69.13 ± 2.9 mPa·s; mass density ([2]; 318.15 K, x1 = 1): 1132.22 ± 1.1 kg/m3; viscosity ([2]; 323.15 K, x1 = 1): 56.74 ± 2.4 mPa·s; mass density ([2]; 323.15 K, x1 = 1): 1128.88 ± 1.1 kg/m3; viscosity ([2]; 328.15 K, x1 = 1): 48.36 ± 2 mPa·s; mass density ([2]; 328.15 K, x1 = 1): 1125.5 ± 1.1 kg/m3; viscosity ([2]; 333.15 K, x1 = 1): 43.01 ± 1.8 mPa·s; mass density ([2]; 333.15 K, x1 = 1): 1122.14 ± 1.1 kg/m3; viscosity ([2]; 338.15 K, x1 = 1): 37.15 ± 1.6 mPa·s; mass density ([2]; 338.15 K, x1 = 1): 1118.8 ± 1.1 kg/m3
CCCCCCn1cc[n+](C)c1.F[B-](F)(F)F [1-hexyl-3-methylimidazolium tetrafluoroborate]	234.68 ± 11	1149.05 ± 1.2	178.92 ± 8.4	1145.61 ± 1.1	136.15 ± 6.2	1142.3 ± 1.1	106.65 ± 4.7	1138.95 ± 1.1	83.13 ± 3.6	1135.59 ± 1.1	69.13 ± 2.9	1132.22 ± 1.1	56.74 ± 2.4	1128.88 ± 1.1	48.36 ± 2	1125.5 ± 1.1	43.01 ± 1.8	1122.14 ± 1.1	37.15 ± 1.6	1118.8 ± 1.1	–
CC(C)CO [2-methyl-1-propanol] + CCCCCCn1cc[n+](C)c1.F[B-](F)(F)F	–	–	–	–	–	–	–	–	–	–	–	–	–	–	–	–	–	–	–	–	viscosity ([2]; 293.15 K, x2 = 0): 4.085 ± 0.17 mPa·s; mass density ([2]; 293.15 K, x2 = 0): 801.75 ± 0.24 kg/m3; viscosity ([2]; 298.15 K, x2 = 0): 3.45 ± 0.14 mPa·s; mass density ([2]; 298.15 K, x2 = 0): 797.89 ± 0.24 kg/m3; viscosity ([2]; 303.15 K, x2 = 0): 2.877 ± 0.12 mPa·s; mass density ([2]; 303.15 K, x2 = 0): 793.99 ± 0.24 kg/m3; viscosity ([2]; 308.15 K, x2 = 0): 2.385 ± 0.098 mPa·s; mass density ([2]; 308.15 K, x2 = 0): 790.04 ± 0.24 kg/m3; viscosity ([2]; 313.15 K, x2 = 0): 2.091 ± 0.086 mPa·s; mass density ([2]; 313.15 K, x2 = 0): 786.04 ± 0.24 kg/m3; viscosity ([2]; 318.15 K, x2 = 0): 1.85 ± 0.076 mPa·s; mass density ([2]; 318.15 K, x2 = 0): 781.98 ± 0.24 kg/m3; viscosity ([2]; 323.15 K, x2 = 0): 1.576 ± 0.065 mPa·s; mass density ([2]; 323.15 K, x2 = 0): 777.85 ± 0.24 kg/m3; viscosity ([2]; 328.15 K, x2 = 0): 1.297 ± 0.053 mPa·s; mass density ([2]; 328.15 K, x2 = 0): 773.65 ± 0.24 kg/m3; viscosity ([2]; 333.15 K, x2 = 0): 1.124 ± 0.046 mPa·s; mass density ([2]; 333.15 K, x2 = 0): 769.36 ± 0.24 kg/m3; viscosity ([2]; 338.15 K, x2 = 0): 0.9876 ± 0.041 mPa·s; mass density ([2]; 338.15 K, x2 = 0): 764.99 ± 0.24 kg/m3
CC(C)CO [2-methyl-1-propanol]	4.085 ± 0.17	801.75 ± 0.24	3.45 ± 0.14	797.89 ± 0.24	2.877 ± 0.12	793.99 ± 0.24	2.385 ± 0.098	790.04 ± 0.24	2.091 ± 0.086	786.04 ± 0.24	1.85 ± 0.076	781.98 ± 0.24	1.576 ± 0.065	777.85 ± 0.24	1.297 ± 0.053	773.65 ± 0.24	1.124 ± 0.046	769.36 ± 0.24	0.9876 ± 0.041	764.99 ± 0.24	–
